We go through 40 molecules from ChEMBL document CHEMBL1201862, “PubChem BioAssay data set” (2004).

Assay [1] in a line: Luminescence Cell-Based Dose Confirmation HTS to Identify Activators of 5'UTR Stem-Loop Driven Alpha-Synuclein mRNA Translation in H4 Neuroglioblastoma Cells. [Related pubchem assays: 1829 (Project Summary), 1814 (Primary HTS)]. The class given is functional.
The nature of assay [2]: Luminescence Cell-Based Dose Response HTS to Identify Activators of Luciferase Translation or Activity in H4 […] Cells. [Related pubchem assays: 1829 (Project Summary), 1814 (Primary HTS)]. Type of assay: functional.
The next assay deals with H4. The experiment in a line: Luminescence Cell-Based Dose Response HTS to Identify Activators of 5'UTR Stem-Loop Driven Prion Protein mRNA Translation in H4 Neuroglioblastoma Cells. [Related pubchem assays: 1829 (Project Summary), 1814 (Primary HTS)]. Type of assay: functional. The note with it: Homo sapiens.
Assay [3] deals with FAD-linked sulfhydryl oxidase ALR (Homo sapiens, UniProt P55789). The experiment in a line: inhibitors of human ALR sulfhydryl oxidase, dose response, biochemical, H2O2 detection, luminescence, cherry-pick (AID 493248).
Sequence of FAD-linked sulfhydryl oxidase ALR (P55789 whole entry): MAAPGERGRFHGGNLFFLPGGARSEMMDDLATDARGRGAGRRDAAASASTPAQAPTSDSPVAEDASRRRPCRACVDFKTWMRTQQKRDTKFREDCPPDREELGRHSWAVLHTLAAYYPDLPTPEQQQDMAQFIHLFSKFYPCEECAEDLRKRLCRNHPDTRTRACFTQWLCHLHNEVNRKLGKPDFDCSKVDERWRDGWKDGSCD
Assay [4] can be described thus: inhibitors of firefly luciferase expression or activity, dose response, H4 neuroglioma cells, luminescence (AID 1990). Type of assay: functional, cell-based.
Assay [5] is described as follows: Luminescence Cell-Based Dose Response HTS to Identify Inhibitors of 5'UTR Stem-Loop Driven Prion Protein mRNA Translation in H4 Neuroglioblastoma Cells. [Related pubchem assays: 1827 (Project Summary), 1813 (Primary HTS)]. The class given is functional.
Assay [6] is described as follows: inhibitors of SNCA 5'UTR-driven reporter translation, confirmation, H4 neuroglioma cells, luminescence (AID 1988). The class given is functional, cell-based.
Assay [7] in a line: Luminescence Cell-Based Dose Retest to Confirm Inhibitors of Cancer Stem Cells. [Related pubchem assays (depositor defined):AID2717, AID2721]. Type of assay: functional. The note with it: Homo sapiens.
Assay [8] addresses T1, Heat shock factor protein 1 (Mus musculus, UniProt P38532).
T1 sequence (P38532 whole entry): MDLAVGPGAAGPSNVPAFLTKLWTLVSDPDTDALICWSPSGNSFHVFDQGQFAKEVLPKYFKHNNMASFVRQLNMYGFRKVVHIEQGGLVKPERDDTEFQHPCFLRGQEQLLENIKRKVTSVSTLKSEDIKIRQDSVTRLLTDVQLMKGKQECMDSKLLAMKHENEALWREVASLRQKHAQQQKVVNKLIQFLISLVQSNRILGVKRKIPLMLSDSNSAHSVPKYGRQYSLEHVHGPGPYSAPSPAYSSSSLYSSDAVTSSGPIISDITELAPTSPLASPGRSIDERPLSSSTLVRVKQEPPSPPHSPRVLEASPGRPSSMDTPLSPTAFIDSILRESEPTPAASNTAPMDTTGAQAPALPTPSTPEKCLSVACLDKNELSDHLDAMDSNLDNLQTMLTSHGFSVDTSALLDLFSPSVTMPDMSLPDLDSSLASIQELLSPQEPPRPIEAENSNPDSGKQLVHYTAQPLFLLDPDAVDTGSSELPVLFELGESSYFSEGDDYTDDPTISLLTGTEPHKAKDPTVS
Description: HSF1 potentiators in luciferase reporter cells, confirmation, cell-based, NIH3T3, luminescence, dose retest (AID 435004).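 Also: stress induced by proteasome inhibitor MG132 added 30 min after compound; luciferase reporter driven by HSF1 response element in NIH3T3 cells; actives raise luminescence as potentiators of the MG132 stress response.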 Type of assay: functional.

The test system of assay [9] is BJ. Description: cytotoxicity toward BJ-TERT fibroblasts, dose response, cell-based, RAS-independent, luminescence (AID 1933). The class given is functional. The note with it: Homo sapiens.
Assay [10] has as its system BJ. Description: cells. The note with it: Homo sapiens. Type of assay: functional, cell-based.
The subject of assay [11] is BJ. The experiment in a line: cytotoxicity toward BJ-TERT-LT-ST fibroblasts, dose response, cell-based, RAS-independent, luminescence (AID 1935).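 Also: BJ fibroblasts immortalized with TERT plus LT and ST oncogenes.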 The note with it: Homo sapiens. The class given is functional.
Assay [12] can be described thus: cytotoxicity toward DRD oncogenic fibroblasts, dose response, cell-based, non-viral oncogenic, luminescence (AID 1934). Type of assay: functional. The note with it: Homo sapiens.
In the next assay the target is Cytochrome P450 2C19 (Homo sapiens, UniProt P33261). The experiment in a line: Cytochrome panel assay with activity outcomes. Panel member name: p450-cyp2c19 Compounds with AC50 equal or less than 10 uM are considered active. The class given is functional. The note with it: read-out: AC50.
Sequence of Cytochrome P450 2C19 (P33261 whole entry): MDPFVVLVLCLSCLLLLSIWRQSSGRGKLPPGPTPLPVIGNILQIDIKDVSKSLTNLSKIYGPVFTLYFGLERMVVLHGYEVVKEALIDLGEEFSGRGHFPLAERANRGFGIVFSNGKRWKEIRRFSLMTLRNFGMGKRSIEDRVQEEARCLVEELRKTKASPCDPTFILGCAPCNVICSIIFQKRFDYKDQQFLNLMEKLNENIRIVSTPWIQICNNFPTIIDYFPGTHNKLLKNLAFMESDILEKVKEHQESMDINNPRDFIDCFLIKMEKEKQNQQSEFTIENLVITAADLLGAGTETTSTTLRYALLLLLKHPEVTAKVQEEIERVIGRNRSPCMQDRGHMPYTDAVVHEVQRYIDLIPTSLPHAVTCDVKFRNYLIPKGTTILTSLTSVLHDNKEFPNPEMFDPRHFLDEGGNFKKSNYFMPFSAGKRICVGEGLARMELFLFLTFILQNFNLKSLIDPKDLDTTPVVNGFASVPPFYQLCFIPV
In assay [13] the test system is Streptococcus sp. 'group A'. Description: growth inhibition of control SK(-) GAS strain, dose response, counter-screen for streptokinase expression inhibitor project, luminescence, kanamycin, BacTiterGlo, confirmation (AID 1900). Type of assay: functional, organism-based.
In the next assay the test system is Streptococcus. Description: Group A Streptococcus viability loss, dose response, counter-screen for streptokinase expression inhibitor project, luminescence, BacTiterGlo (AID 1915).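 Also: potency for reduction of bacterial viability or growth.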 Type of assay: functional, organism-based.
The next assay has as its system INS1. Description: beta cell apoptosis inhibitors, cytokine rescue, dose response, luminescence, retest (AID 449756).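 Also: cell death triggered by IL-1 beta plus TNF-alpha plus IFN-gamma mixture; protective hits raise ATP signal compared with cytokine alone wells.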 Type of assay: functional, cell-based. The note with it: Rattus norvegicus.
The next assay has as its target Paired box protein Pax-8 (Homo sapiens, UniProt Q06710). Description: inhibitors of PAX8-driven TPO luciferase reporter, dose response, RMG-I cells, cherry-pick (AID 687027).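 Also: luciferase reporter driven by Pax8 target thyroperoxidase promoter measured by SteadyGlo luminescence.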 Type of assay: functional, cell-based.
Assay [14] is described as follows: inhibitors of intracellular T. cruzi replication, confirmation, NIH3T3 host cells, beta-gal luminescence (AID 2044).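 Also: intracellular parasites grown in NIH/3T3 mouse fibroblasts as host cells; luminescent beta-galactosidase reporter signal from transgenic T. cruzi replicating inside host cells; inhibitors lower the luminescence signal.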 The class given is functional, cell-based.
Assay [15] in a line: cytotoxicity toward NIH3T3 fibroblasts, dose response, counter-screen, cell-based, ATP luminescence, mouse fibroblasts (AID 2010).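 Also: cells exposed to compound for about 90 hours before reading.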 The class given is functional.
The target of a further assay is Cytochrome P450 2D6 (Homo sapiens, UniProt P10635).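 Also: CYP2D6 member of a cytochrome P450 panel assay.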
Sequence of Cytochrome P450 2D6 (P10635 whole entry): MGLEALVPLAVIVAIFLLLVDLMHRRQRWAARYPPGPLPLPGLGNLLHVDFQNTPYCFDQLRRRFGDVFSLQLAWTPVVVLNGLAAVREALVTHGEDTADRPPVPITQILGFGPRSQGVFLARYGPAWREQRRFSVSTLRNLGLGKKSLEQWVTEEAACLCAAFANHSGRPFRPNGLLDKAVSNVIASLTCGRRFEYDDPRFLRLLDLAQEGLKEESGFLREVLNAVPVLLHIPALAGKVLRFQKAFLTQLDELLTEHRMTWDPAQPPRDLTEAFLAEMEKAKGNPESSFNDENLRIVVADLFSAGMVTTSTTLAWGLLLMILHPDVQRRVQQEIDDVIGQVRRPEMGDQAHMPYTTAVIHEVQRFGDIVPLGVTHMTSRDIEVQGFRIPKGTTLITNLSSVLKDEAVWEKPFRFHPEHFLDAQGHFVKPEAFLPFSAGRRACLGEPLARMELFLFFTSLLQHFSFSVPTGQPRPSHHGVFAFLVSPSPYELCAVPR

Activity calls are given as the source filed them.

Sequence of Paired box protein Pax-8 (Q06710 whole entry): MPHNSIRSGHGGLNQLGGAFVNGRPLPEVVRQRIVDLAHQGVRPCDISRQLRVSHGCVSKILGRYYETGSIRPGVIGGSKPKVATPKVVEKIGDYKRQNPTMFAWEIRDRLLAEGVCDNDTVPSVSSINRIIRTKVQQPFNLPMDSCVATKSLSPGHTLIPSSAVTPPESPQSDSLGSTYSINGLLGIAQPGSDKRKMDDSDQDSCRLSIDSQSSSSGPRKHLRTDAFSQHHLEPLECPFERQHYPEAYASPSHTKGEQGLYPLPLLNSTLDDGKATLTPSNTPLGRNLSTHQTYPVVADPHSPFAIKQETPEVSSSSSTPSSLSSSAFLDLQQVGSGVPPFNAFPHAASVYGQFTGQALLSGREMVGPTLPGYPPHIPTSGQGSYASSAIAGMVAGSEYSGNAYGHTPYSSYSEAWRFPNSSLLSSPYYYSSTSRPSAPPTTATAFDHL

Regarding `CC1Oc2ccccc2C=C1/C=C1/SC(N2CCOCC2)=NC1=O` (centres undefined), the EC50 is 7.43 µM (active) in [1], 37.3 µM (active) in assay [2] and 10.9 µM (active) in the assay with H4.

As for `Nc1ccccc1Sc1c[nH]c2ccccc12`, the AC50 in assay [3] was 24.5 µM (active).

Turning to `Cc1cc(C(=O)C(=O)O)c(C)n1-c1ccc(Cl)c(Cl)c1`, the AC50 in assay [3] was 1.39 µM (active).

Consider `CC(Oc1cccc(Cl)c1)C(=O)Nc1ccc([N+](=O)[O-])cn1` (centres undefined), for which the EC50 is 21.4 µM (active) in assay [4], > 120 µM (not active) in assay [5] and 59.8 µM (active) in assay [6].

For `CCC(C)n1ncn(-c2ccc(N3CCN(c4ccc(O)cc4)CC3)cc2)c1=O` (centres undefined), the EC50 in assay [4] was > 120 µM (not active); in [5], 19.7 µM (active). In addition, in [7], the AC50 is 1.2 µM (active).

As to `CC(Sc1nnc2ccccn12)C(N)=O` (centres undefined), the EC50 in assay [8] is > 260 µM (inactive).

For `O=C(CC1Sc2ccccc2NC1=O)c1ccc(Br)cc1` (centres undefined), the EC50 is 5.6 µM (active) in assay [1], 7.15 µM (active) in assay [2] and 36.6 µM (active) in the assay on H4.

Consider `Cc1ccc(S(=O)(=O)NC(=O)Nc2ccc(C)cn2)cc1`, for which the EC50 in assay [8] was > 260 µM (inactive).

`Cc1sc2c(c1C)CN(CCN1CCOCC1)CN2C(=O)c1ccccc1`: the results for the EC50 (in assay [1]; in assay [2]; in the assay on H4) were 19.9 µM (active), 13.7 µM (active) and > 120 µM (not active), respectively.

For `O=C(c1cccc(F)c1)N1CCN=C1SCc1cccnc1`, the AC50 in [3] was 0.123 µM (active).

Consider `Cc1cc(NC(=O)c2cccc(Br)c2)[nH]n1`, for which the EC50 was 2.47 µM (active) in [1] and 54.5 µM (active) in assay [2].

Take `CC(Oc1ccc(F)cc1Br)c1nc(O)c2ccccc2n1` (centres undefined): the EC50 in assay [8] is 74.4 µM (active).

`CC1(C)CN(c2cccc(Br)c2)C1=O`: the EC50 in assay [8] is > 260 µM (inactive).

Turning to `CC(=O)Nc1ccccc1OC(C)C(=O)N1CC(C)CC(C)C1` (centres undefined), the EC50 in assay [8] was > 260 µM (inactive).

Take `Cc1ccc(C(=O)c2cc([N+](=O)[O-])ccc2N2CC(C)OC(C)C2)cc1` (centres undefined): the EC50 was 13.8 µM (active) with BJ [9], 31.6 µM (active) with BJ [10], 16.7 µM (active) in the assay with BJ [11] and 12.5 µM (active) in [12].

Regarding `N/C(=C\C(=O)c1cc(Cl)ccc1O)C(Cl)(Cl)Cl`, the EC50 in the assay on BJ [9] was 3.92 µM (active); with BJ [10], 5.09 µM (active); in the assay with BJ [11], 7.09 µM (active); in [12], 5.12 µM (active).

In the case of `Cc1ccc2c(c1)C(N1CCCC1=O)CC(c1ccco1)N2` (centres undefined), the EC50 in assay [1] was 14.6 µM (active); in assay [2] it was 16.1 µM (active); in the assay on H4, > 120 µM (not active).

For the molecule `CCC1CCCCN1C(=O)COC(=O)c1cc2ccccc2cc1O` (centres undefined), the EC50 in assay [8] was > 260 µM (inactive).

As for `Cc1ccccc1NCCC(=O)Nc1ccc(Cl)cc1`, in [3], the AC50 was 4.88 µM (active).

On to `O=C(c1ccccc1F)N1CCN=C1SCc1cccnc1`, for which, in assay [3], the AC50 is 0.552 µM (active).

With `CN(C)S(=O)(=O)Oc1ccsc1C(=O)Nc1ccccc1Cl`, the EC50 in assay [4] is > 120 µM (not active); in assay [5] it was > 120 µM (not active); in assay [6] it was 15.7 µM (active).

Regarding `COc1ccccc1N1CCN(C(=O)Cn2nc(C(F)(F)F)c3c2CCC3)CC1`, the EC50 in [4], in [5] and in [6] was > 120 µM (not active) each time.

As to `O=C(COC(=O)/C=C/c1ccc(Br)o1)NCCCN1CCCC1=O`, the EC50 in [8] is > 260 µM (inactive).

For the molecule `O=C(CC1C=Cc2ccccc2N1C(=O)c1ccccc1)c1ccccc1` (centres undefined), in assay [8], the EC50 is > 260 µM (inactive).

Take `c1ccc(CCc2nc(-c3ccccc3)no2)cc1`: the figures for the EC50 (in assay [1]; in assay [2]; in the assay with H4) were 56.8 µM (active), 51.8 µM (active) and 6.54 µM (active), respectively. The AC50 at Cytochrome P450 2C19 was 0.501 µM (inconclusive).

Consider `CCCCN1C(=O)/C(=C/c2c[nH]nc2-c2ccccc2)SC1=S`, for which the EC50 in assay [8] is > 260 µM (inactive).

As for `COc1ccc(S(=O)(=O)Cc2ccc(C(=O)N3CCN(c4cccc(C)c4C)CC3)o2)cc1`, the EC50 was > 150 µM (not active) in the assay on BJ [9], > 150 µM (not active) with BJ [10], > 75 µM (inconclusive) in the assay with BJ [11] and 20.4 µM (active) in assay [12].

`O=C(NCc1csc(-c2ccccc2)n1)c1cc(F)cc2c1OCOC2`: the EC50 in assay [1] was 14.9 µM (active); in assay [2], 13.1 µM (active); in the assay with H4, 15.5 µM (active).

With `Cc1ccc(NCC(=O)N=Nc2c(O)[nH]c3ccc([N+](=O)[O-])cc23)cc1`, the EC50 in assay [1] was 24.6 µM (active); in [2], 0.255 µM (active); in the assay with H4, 0.303 µM (active).

Turning to `CCO/C(O)=C1\C(C)=Nc2sc(C(=O)c3ccc(C)cc3)c(N)c2C1c1ccc(C(=O)OC)cc1` (centres undefined), the EC50 in [4], in assay [5] and in assay [6] was > 120 µM (not active) throughout.

As for `CCOC(=O)C1(Cc2cccc(OC)c2)CCCN(C(=O)CCc2cccnc2)C1` (centres undefined), the EC50 in [1] was 15.2 µM (active); in assay [2], 12.6 µM (active); in the assay on H4 it was > 120 µM (not active).

With `Cc1ccc(C(=O)O/N=C(\N)Cc2cccc3ccccc23)cc1`, the EC50 in assay [8] was > 260 µM (inactive).

Take `Cc1cccc(C(=O)NNC(=O)c2ccc(Cl)cc2)c1O`: the EC50 in assay [1] is 23.3 µM (active); in [2] it was 7.11 µM (active); in the assay on H4, 98.9 µM (active).

With `COc1ccc(F)cc1S(=O)(=O)Nc1ccc2c(c1)OCO2`, the EC50 in [8] is > 260 µM (inactive).

With `COc1cnn(-c2cc(Oc3ccc(C)cc3)ncn2)c(=O)c1Cl`, the EC50 in [8] was > 260 µM (inactive).

Consider `CC(=O)Nc1ccc(NC2CCCCC2NS(=O)(=O)c2ccccc2)cc1` (centres undefined), for which the AC50 in assay [3] is 0.736 µM (active).

On to `Cc1nc2ccccc2c(=O)n1CCc1ccc(O)cc1`, for which the AC50 in assay [3] is 3.66 µM (active).

In the case of `O=C(COc1ccccc1-c1ccccc1)N/N=C/c1ccc2ccccc2c1`, the EC50 in [13] is 4.87 µM (active); in the assay on BJ [9] it was 0.364 µM (active); in the assay with BJ [10], 0.568 µM (active); in the assay with BJ [11], 0.472 µM (active); in [12], 0.475 µM (active); with Streptococcus, 2.41 µM (active). Also, the AC50 is 0.258 µM (active) in assay [7], 9.14 µM (active) with INS1 and 2.1 µM (active) on Paired box protein Pax-8.

For the molecule `C/C(=N\OC(=O)NC1CCCCC1)c1sc(-c2ccccc2)nc1C`, the EC50 in assay [1] is 22 µM (active); in [2] it was 0.673 µM (active); in the assay with H4, > 120 µM (inconclusive); in assay [14] it was 2.05 µM (active); in assay [15], > 60 µM (not active). In addition, the AC50 on Cytochrome P450 2D6 is 28.2 µM (inconclusive).

For the molecule `COc1cccc2cc(/C(=N/O)c3ccc(Br)cc3)oc12`, the EC50 was 14.6 µM (active) in [4], 18.6 µM (active) in [5] and 12.8 µM (active) in assay [6].
